# Legend:
# [1] = tested on: hair shafts (zigzag hairs) of skin samples transplanted in Balb/c nu/nu mice; test: Measurement of increase in hair diameter on hair shafts from Exemplary Test 1; type: in vivo
# Procedure: Measurement of increase in hair diameter was carried out using hair shafts that had completed the second cycle at the foregoing Exemplary Test 1. Of the hair shafts that were collected, three zigzag hairs were used for measurement of increase in hair diameter. Three locations were selected in regions where diameter was large in the central portions thereof using a square […] on a side. For each of the selected regions, five different locations were further selected, and hair shaft diameter of the zigzag hairs thereat was measured to evaluate the degree to which increase in hair diameter had occurred.
# Here, ** at FIG. 2 and TABLE 2 indicates p<0.01, i.e., that the results are significant.
# [2] = tested on: human dermal papilla cells; test: Dermal papilla cell growth promotion (Cell Count Reagent SF absorbance); type: cell-based; settings: 10.268375 to 328.588 μM
# Procedure: Human dermal papilla cells (Catalog No. CA602t05a: derived from person: Toy obo Co., Ltd. (Japan)) were purchased, testing and evaluation being carried out with maintenance and culture of cells being performed as described in the protocol.
# As drugs for testing, drug solutions consisting of culture medium for human dermal papilla cells containing palmitoyl dipeptide-5 diaminobutyloyl hydroxythreonine in the following respective concentrations (final concentrations) were prepared, and these were used. • Working Example 1: 10.268375 μM • Working Example 2: 20.53675 μM • Working Example 3: 41.0735 μM • Working Example 4: 82.147 μM • Working Example 5: 164.294 μM • Working Example 6: 328.588 μM
# A 96-well plate was seeded with human dermal papilla cells so as to obtain 1×10^3 thereof per well. […] After this had been added thereto, absorbance (measurement wavelength 450 nm; reference wavelength 620 nm) of the culture supernatant was measured. Based on these values, the cell growth rates at the respective wells were calculated, at which time the cell growth rate of the control group at which nothing had been added was taken to be 100%.
# [3] = tested on: skin samples derived from dorsal body hair skin transplanted in Balb/c nu/nu mice; test: Evaluation of hair growth activity: drug applied on skin samples from mouse dorsal body hair skin grafted onto Balb/c nu/nu mice; type: in vivo
# Procedure: C57BL/6N mice (male) and Balb/c nu/nu mice (female) were purchased from Japan SLC, Inc.(Japan) and bred, and were thereafter made available for the following testing. Note that the testing and breeding of animals complied with pertinent laws, regulations, ordinances, and guidelines, and was performed with the approval of the Experimental Ethics Review Board of the Institute of Physical and Chemical Research.
# The following reagents were respectively prepared. • Placebo: 60% aqueous ethanol solution • Working Example 1: 0.05% solution of palmitoyl dipeptide-5 diaminobutyloyl hydroxythreonine
# To collect dorsal body hair skin in the form of anagen stage VI skin 12 to 14 days following depilation. C57BL/6N mice of age 7 to 8 weeks were depilated at locations where dorsal body hair skin was intended to be collected, and were bred for 12 to 14 days. The depilated C57BL/6N mice were thereafter euthanized by cervical dislocation, following which a suitable amount of dorsal body hair skin was collected from the locations at which dorsal body hair skin was intended to be collected.
# The collected skin was immersed in DMEM culture medium (hereinafter “DMEM 10”) which contained 10 mM HEPES, 10% fetal bovine serum, and 1% penicillin/streptomycin solution. The collected dorsal body hair skin was grasped with bent-nose curved tweezers and was treated by immersion for 10 seconds in a sterilizing solution. Sterilization treatment was performed by carrying out treatment with 7% povidone iodine solution two times, treatment with PBS (−) three times, and treatment with DMEM 10 two times, in this order, with fresh solutions respectively being used each time. Following sterilization treatment, these were immersed in clean DMEM 10.
# Following sterilization treatment, the dorsal body hair skin was cut into pieces and formed into blocks. The transparent connective tissue which adhered to the cutaneous muscle layer of the skin was excised therefrom using curved scissors, and hair groups were cut into rectangular strips in parallel fashion with respect to the direction of the wave of the hair. At this time, these were cut into blocks such that there were 6 rows of hair follicles along the long axis, adjustment having been carried out so that there were 5 rows of hair follicles along the short axis.
# The skin samples derived from dorsal body hair skin that were prepared in accordance with the foregoing were grafted onto Balb/c nu/nu mice of age 4 to 6 weeks.
# More specifically, mice were anesthetized in the usual way using isoflurane gas. The dorsal area of the mice was then disinfected using 7% povidone iodine solution, following which the mice were made to assume a naturally recumbent posture. In addition, a Mani ophthalmic knife (Mani, Inc.; Japan) was used to pierce the skin at the dorsal area of the mice, the grafts which were formed extending from the epidermal layer of the skin to the subdermal layer. The skin samples derived from dorsal body hair skin were inserted into the grafts formed thereat in such fashion as to cause the hair groups to be directed toward the body surface side of the grafts. Skin sample transplanted depth was adjusted so as to cause the top portion of the hair group to be in a state such that it was exposed at the top portion of the graft. To protect the grafts, Nurseban (registered trademark) (Sunplanet Co., Ltd.; Japan) and surgical tape (3M Japan Limited; Japan) were then used as protective tape to cover the grafts at which the skin samples derived from dorsal body hair skin had been transplanted. The protective tape was removed 5 to 7 days following transplantation, and survival of the transplanted skin samples derived from dorsal body hair skin was determined by visual inspection or digital microscopy (Keyence Corporation: Japan), after which follow-up observation was carried out.
# For the first hair cycle, 60% aqueous ethanol solution was applied thereto as placebo. […]
# FGF-7 gene = FGF-7 gene expression in human dermal papilla cells by real-time PCR; type: cell-based; settings: 24 hours, FIG. 4
# Procedure: Testing and evaluation were carried out with maintenance and culture of human dermal papilla cells being performed in the same manner as at Exemplary Test 3, above.
# As drugs for testing, drug solutions of the following respective concentrations (final concentrations) were prepared and used. • Comparative Example 1: 100 μM adenosine • Working Example 1: 1 μM palmitoyl dipeptide-5 diaminobutyloyl hydroxythreonine • Working Example 2: 10 μM palmitoyl dipeptide-5 diaminobutyloyl hydroxythreonine • Working Example 3: 300 μM palmitoyl dipeptide-5 diaminobutyloyl hydroxythreonine
# A 24-well plate was seeded with human dermal papilla cells so as to obtain 6×10^3 thereof per well. […]
# Following culture, total RNA was extracted from the respective wells and was recovered, and this was reverse-transcribed into cDNA. […] The GAPDH gene was used as an internal standard, the amount of FGF-7 gene expression being calculated relative to the negative control group.
# A FastGene RNA Basic Kit (Catalog No. FG-80250; Nippon Genetics Co., Ltd. (Japan)) was used to recover total RNA from cells. […] Concentration of the recovered RNA was measured using a NanoDrop Lite (Catalog No. ND-LITE; Thermo Fisher Scientific K.K.), and this was stored at −80° C. until the following cDNA creation procedure. […]
# [4] = 0.05% solution applied topically to transplanted skin samples, second hair cycle
# [5] = 0.05% solution, second hair cycle vs placebo applied in first hair cycle
substance,measurement,setting,value
palmitoyl dipeptide-5 diaminobutyloyl hydroxythreonine,Hair diameter as compared with 60% aqueous ethanol control (in words),[1]; 0.05% solution,clear increase in hair diameter
same,"Hair shaft diameter, percent increase",[1]; second hair cycle vs placebo applied in first hair cycle,137%
same,Hair shaft diameter,"[1]; zigzag hairs after second hair cycle, 0.05% solution, p<0.01",22.0 ± 1.6 ** μm
same,Cell growth rate as compared with control group at which nothing had been added (in words),"[2]; 24, 48 or 72 hours, FIG. 3",increase in cell growth rate
same,Concentration dependence of cell growth rate (in words),[2]; within concentration domain tested,increased in concentration-dependent fashion
same,Hair shaft elongation rate,[3]; [4],0.40 ± 0.08 mm/day
same,Maximum hair shaft length,[3]; [4],5.1 ± 0.3 mm
same,"Hair shaft elongation rate, percent change relative to reference data",[3]; [5],110.45%
same,"Maximum hair shaft length, percent change relative to reference data",[3]; [5],103.27%
same,Hair growth activity (in words),[3]; solution containing 0.05%,exhibit hair growth activity
same,Hair shaft elongation rate as compared with reference data (in words),[3]; solution containing 0.05%,significant improvement
same,Maximum hair shaft length as compared with reference data (in words),[3]; solution containing 0.05%,significant improvement
same,Amount of expression of FGF-7 gene as compared with control group (in words),FGF-7 gene; 1 μM and 10 μM,increase in the amount of expression of the FGF-7 gene
same,Amount of expression of FGF-7 gene compared with 100 μM adenosine (in words),FGF-7 gene; increased amount added,greater than that which was produced as a result of action of adenosine
